Tests used:
Format in all cases: biochemical
Details in all cases: 10 μM EP009
EPHA2 = EPHA2 (Homo sapiens, UniProt P29317); assay: Kinase panel: EPHA2
Experimental: (§1) Achieving JAK3 selectivity remains a significant challenge in the development of new small molecules for the treatment of cancer and immune-derived diseases. As such, the inventors employed cell-based screening assays of small-molecule libraries based upon the chemical scaffold of the established JAK3 inhibitor NC1153 (Stepkowski et al., J Immunol. (2005), 175(7):4236-4246) EP009 (FIG. 2A) was selected as a lead compound due to improved intrinsic stability (>95% purity in various solvents at 37° C. for 24 hours; FIG. 3) and high-degree of JAK3 selectivity. To test JAK3 versus JAK2 specificity of EP009, the IL-2/JAK3-dependent Kit225, and IL-3/JAK2-dependent BaF/3 cell lines were used. Kit225 and BaF/3 cells growing in the presence of IL-2 or IL-3, respectively, were treated with ascending concentrations of EP009 for 12 hours and cellular JAK3 and JAK2 tyrosine phosphorylation levels detected by Western blot analysis (FIGS. 2B and 2C). Following densitometric analysis, EP009 was determined to dose-dependently reduce IL-2-mediated JAK3 tyrosine phosphorylation with a cellular 50% inhibitory concentration (IC50) between 10 and 20 μM (FIG. 2B). […] To globally evaluate specificity, the inhibitory activity of EP009 was measured against a panel of protein kinases distributed throughout the kinome using the scanEDGE profiling service (KINOMEscan). […]

PDPK1 = PDPK1 (Homo sapiens, UniProt O15530); assay: Kinase panel: PDPK1
PDPK1, sequence (O15530 whole entry): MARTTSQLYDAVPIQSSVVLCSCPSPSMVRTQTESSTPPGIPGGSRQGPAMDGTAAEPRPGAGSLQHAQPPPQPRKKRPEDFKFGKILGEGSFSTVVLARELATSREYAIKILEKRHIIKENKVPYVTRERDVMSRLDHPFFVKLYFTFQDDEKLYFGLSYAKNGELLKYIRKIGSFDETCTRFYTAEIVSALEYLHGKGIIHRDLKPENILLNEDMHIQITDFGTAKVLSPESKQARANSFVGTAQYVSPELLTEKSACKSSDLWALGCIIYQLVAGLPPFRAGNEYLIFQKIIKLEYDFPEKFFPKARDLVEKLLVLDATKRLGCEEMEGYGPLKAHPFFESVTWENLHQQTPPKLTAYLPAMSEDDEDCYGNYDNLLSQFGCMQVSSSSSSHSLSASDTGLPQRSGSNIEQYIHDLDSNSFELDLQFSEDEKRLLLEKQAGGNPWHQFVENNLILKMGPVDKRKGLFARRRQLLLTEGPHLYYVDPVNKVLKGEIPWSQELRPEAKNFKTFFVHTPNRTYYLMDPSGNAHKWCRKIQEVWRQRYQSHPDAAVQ
Experimental: as §1

MARK3 = MARK3 (Homo sapiens, UniProt P27448); assay: Kinase panel: MARK3
MARK3, sequence (P27448 whole entry): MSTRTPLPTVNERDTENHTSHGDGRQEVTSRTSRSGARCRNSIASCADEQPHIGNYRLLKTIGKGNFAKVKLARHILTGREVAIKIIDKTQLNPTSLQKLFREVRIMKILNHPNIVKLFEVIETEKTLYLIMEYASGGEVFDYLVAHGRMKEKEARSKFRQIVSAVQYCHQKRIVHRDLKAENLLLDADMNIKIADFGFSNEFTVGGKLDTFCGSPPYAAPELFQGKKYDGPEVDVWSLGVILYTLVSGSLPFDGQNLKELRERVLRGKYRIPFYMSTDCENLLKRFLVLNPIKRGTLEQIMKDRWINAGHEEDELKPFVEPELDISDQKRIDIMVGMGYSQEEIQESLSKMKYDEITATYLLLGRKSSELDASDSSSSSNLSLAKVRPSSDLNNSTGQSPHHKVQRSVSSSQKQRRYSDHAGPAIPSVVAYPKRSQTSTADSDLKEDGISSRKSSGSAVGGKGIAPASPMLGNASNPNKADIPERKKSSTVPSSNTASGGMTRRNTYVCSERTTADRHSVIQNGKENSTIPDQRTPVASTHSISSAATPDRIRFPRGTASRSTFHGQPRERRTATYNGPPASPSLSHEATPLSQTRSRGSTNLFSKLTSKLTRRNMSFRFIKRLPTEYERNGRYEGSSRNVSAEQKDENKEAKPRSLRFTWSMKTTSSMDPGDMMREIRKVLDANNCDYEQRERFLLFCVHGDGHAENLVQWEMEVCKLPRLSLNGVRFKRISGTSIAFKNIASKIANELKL
Experimental: as §1

SRPK3 = SRPK3 (Homo sapiens, UniProt Q9UPE1); assay: Kinase panel: SRPK3
SRPK3, sequence (Q9UPE1 whole entry): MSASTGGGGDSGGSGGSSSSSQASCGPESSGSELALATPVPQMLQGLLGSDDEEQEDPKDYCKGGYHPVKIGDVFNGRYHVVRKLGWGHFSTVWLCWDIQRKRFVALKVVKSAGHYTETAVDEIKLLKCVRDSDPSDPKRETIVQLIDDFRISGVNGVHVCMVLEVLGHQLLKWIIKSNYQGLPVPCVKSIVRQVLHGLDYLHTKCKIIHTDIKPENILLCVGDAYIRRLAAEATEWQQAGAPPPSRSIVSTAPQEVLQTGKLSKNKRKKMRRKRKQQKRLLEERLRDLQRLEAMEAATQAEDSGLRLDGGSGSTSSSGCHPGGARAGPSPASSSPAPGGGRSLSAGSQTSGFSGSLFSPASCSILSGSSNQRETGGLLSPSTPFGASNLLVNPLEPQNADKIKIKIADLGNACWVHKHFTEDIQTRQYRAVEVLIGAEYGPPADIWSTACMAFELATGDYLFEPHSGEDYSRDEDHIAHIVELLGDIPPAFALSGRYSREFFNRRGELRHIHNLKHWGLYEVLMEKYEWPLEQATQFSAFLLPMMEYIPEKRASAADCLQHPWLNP
Experimental: as §1

Measured: Kinase Activity (% of Control)

EPHA2, sequence (P29317 24-976): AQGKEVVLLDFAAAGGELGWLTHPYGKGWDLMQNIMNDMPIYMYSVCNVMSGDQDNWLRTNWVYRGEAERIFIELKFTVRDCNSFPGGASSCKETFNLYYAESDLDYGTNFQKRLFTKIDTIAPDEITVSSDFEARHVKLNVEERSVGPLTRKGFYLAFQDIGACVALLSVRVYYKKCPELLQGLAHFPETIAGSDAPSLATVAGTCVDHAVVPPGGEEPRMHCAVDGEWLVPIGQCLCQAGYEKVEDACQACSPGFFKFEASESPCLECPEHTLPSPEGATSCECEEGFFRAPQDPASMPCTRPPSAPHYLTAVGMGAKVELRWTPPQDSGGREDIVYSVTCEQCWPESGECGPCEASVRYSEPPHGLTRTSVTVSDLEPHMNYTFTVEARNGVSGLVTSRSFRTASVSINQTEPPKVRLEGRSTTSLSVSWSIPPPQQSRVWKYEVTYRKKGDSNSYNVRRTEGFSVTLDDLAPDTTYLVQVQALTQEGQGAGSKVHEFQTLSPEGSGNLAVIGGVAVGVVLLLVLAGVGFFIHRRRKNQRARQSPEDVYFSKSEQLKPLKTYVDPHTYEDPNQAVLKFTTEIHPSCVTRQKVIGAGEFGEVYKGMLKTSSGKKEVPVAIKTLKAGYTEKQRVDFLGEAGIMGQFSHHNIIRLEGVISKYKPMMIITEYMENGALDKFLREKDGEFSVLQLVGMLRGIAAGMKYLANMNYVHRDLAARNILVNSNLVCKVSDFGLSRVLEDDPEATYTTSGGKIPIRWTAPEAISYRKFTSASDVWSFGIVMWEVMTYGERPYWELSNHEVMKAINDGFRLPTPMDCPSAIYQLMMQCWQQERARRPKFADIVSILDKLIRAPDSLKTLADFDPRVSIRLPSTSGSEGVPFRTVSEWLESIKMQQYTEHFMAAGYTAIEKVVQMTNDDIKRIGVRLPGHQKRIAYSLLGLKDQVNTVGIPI

C=C1CCCCCCCCCC(CO)C1=O (stereo not shown) [EP009, 2-(Hydroxymethyl)-12-methylenecyclododecanone]
100 % of Control: all assays above

From patent US9371265B2, “Compositions and methods related to inhibitors of JAK kinase” (EP PHARMA, INC., priority 2012, dated 2016)
